One may read the IC50 as the concentration needed to halve the response being measured. Low readings indicate greater potency in that assay, high ones weaker potency in that assay. In general, Papp refers to a coefficient for how fast a substance crosses the barrier.

The values that follow come from ChEMBL document CHEMBL3091317, “Inhibition of cholinesterase and monoamine oxidase-B activity by Tacrine-Homoisoflavonoid hybrids” (Bioorg Med Chem, 2013).

Data set [1] concerns the target Acetylcholinesterase (Electrophorus electricus, UniProt O42275).
Description: Inhibition of electric eel AChE using acetylthiocholine chloride as substrate preincubated for 15 mins followed by substrate addition measured every 1 min by Ellman method
The target in data set [2] is T1, Amine oxidase [flavin-containing] A (Homo sapiens, UniProt P21397).
T1 sequence (P21397 whole entry): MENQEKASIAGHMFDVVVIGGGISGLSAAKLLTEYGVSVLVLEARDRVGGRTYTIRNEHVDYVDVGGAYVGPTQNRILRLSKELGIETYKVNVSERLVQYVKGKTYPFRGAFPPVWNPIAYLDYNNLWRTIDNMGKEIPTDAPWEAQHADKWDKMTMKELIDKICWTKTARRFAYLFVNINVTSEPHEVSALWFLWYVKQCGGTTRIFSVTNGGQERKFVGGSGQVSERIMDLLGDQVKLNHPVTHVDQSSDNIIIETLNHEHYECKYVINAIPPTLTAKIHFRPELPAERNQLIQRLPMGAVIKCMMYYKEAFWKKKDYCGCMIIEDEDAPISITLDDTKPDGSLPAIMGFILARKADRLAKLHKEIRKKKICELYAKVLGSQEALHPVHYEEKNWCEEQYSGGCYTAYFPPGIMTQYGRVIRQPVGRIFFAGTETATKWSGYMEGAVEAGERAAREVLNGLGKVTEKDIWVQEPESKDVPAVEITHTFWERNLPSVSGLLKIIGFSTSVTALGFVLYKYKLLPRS
The following applies: 20 min, read-out: INH.
Description: Inhibition of human recombinant MAO-A using p-tyramine as substrate assessed as formation of H2O2 at 100 uM preincubated for 15 mins under dark condition followed by substrate addition measured after 20 mins by fluorescence assay relative to control

The target of a further data set is Cholinesterase (Equus caballus, UniProt P81908).
For data set [3], the target named is T2, Amine oxidase [flavin-containing] B (Homo sapiens, UniProt P27338).
T2 sequence (P27338 whole entry): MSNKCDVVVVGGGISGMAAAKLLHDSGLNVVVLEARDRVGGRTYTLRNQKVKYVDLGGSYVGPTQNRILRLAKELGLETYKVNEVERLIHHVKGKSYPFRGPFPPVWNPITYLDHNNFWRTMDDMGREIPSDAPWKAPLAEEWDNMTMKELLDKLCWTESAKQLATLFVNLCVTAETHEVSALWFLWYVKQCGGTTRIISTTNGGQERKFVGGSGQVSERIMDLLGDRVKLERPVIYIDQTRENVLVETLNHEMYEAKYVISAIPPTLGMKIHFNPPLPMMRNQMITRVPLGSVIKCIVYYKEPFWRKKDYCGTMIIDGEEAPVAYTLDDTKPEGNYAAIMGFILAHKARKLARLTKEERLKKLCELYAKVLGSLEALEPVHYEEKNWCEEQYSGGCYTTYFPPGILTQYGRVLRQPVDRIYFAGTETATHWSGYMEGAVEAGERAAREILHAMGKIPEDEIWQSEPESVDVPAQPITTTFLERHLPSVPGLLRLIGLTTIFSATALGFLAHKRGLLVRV
Description: Inhibition of human recombinant MAO-B using benzylamine as substrate preincubated for 15 mins under dark condition followed by substrate addition measured after 20 mins by fluorescence assay

A further data set in a line: in vitro. The following applies: PAMPA.
For data set [4], the target named is T3, Acetylcholinesterase (Homo sapiens, UniProt P22303). Nature of the data set: Inhibition of human erythrocytic AChE using acetylthiocholine chloride as substrate preincubated for 15 mins followed by substrate addition measured every 1 min by Ellman method. Background: In Ellman's method for cholinesterases, released thiocholine reacts with DTNB.
The target in data set [5] is Acetylcholinesterase (Electrophorus electricus) (UniProt O42275). The data set is described as follows: Mixed-type inhibition of electric eel AChE using acetylthiocholine chloride as substrate assessed as increase in Km at 60 to 100 nM preincubated for 15 mins followed by substrate addition by Lineweaver-Burk plot analysis.
Data set [6] addresses T3, Acetylcholinesterase. The data set is described as follows: Inhibition of AChE (unknown origin)-induced beta-amyloid aggregation.
Data set [7] addresses T2, Amine oxidase [flavin-containing] B. Nature of the data set: Irreversible inhibition of human recombinant MAO-B at 1 uM preincubated for 15 mins followed by repeated washing by centrifugation-ultrafiltration method relative to control.
Data set [8] shares this target. Nature of the data set: Inhibition of human recombinant MAO-B at 400 nM incubated for 15 mins prior to washing relative to control. The following applies: 0.25 h.
Data set [9] shares this target. Nature of the data set: Inhibition of human recombinant MAO-B at 1 uM incubated for 15 mins prior to washing relative to control. The following applies: 0.25 h.
Data set [10] concerns the target Acetylcholinesterase (Electrophorus electricus) (UniProt O42275). Nature of the data set: Mixed-type inhibition of electric eel AChE using acetylthiocholine chloride as substrate assessed as decrease in Vmax at 60 to 100 nM preincubated for 15 mins followed by substrate addition by Lineweaver-Burk plot analysis.
Data set [11] has as its target T2, Amine oxidase [flavin-containing] B. The data set is described as follows: Irreversible inhibition of human recombinant MAO-B at 400 nM preincubated for 15 mins followed by repeated washing by centrifugation-ultrafiltration method relative to control.
For data set [12] the target is unchanged. The data set is described as follows: Inhibition of human recombinant MAO-B using benzylamine as substrate at 20 uM preincubated for 15 mins under dark condition followed by substrate addition measured after 20 mins by fluorescence assay.

Each structure is given as a SMILES string. Activity calls are given as the source filed them. No cut-off for these calls is given here.

Cholinesterase, sequence (P81908 whole entry): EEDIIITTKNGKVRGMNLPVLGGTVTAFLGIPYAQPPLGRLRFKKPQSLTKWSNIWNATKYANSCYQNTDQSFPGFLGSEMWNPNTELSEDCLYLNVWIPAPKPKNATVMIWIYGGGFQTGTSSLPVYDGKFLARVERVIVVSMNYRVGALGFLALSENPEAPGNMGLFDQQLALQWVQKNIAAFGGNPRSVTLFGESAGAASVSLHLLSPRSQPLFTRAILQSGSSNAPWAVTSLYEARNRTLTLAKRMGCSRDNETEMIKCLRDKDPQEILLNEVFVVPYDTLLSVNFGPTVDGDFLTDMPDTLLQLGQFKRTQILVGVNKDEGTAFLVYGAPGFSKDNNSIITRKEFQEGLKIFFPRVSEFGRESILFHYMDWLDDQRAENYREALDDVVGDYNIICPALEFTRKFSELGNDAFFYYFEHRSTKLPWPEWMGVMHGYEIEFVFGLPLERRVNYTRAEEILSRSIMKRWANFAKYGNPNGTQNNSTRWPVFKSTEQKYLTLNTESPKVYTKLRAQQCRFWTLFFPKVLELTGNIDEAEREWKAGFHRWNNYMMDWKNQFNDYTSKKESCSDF
T3 sequence (P22303 whole entry): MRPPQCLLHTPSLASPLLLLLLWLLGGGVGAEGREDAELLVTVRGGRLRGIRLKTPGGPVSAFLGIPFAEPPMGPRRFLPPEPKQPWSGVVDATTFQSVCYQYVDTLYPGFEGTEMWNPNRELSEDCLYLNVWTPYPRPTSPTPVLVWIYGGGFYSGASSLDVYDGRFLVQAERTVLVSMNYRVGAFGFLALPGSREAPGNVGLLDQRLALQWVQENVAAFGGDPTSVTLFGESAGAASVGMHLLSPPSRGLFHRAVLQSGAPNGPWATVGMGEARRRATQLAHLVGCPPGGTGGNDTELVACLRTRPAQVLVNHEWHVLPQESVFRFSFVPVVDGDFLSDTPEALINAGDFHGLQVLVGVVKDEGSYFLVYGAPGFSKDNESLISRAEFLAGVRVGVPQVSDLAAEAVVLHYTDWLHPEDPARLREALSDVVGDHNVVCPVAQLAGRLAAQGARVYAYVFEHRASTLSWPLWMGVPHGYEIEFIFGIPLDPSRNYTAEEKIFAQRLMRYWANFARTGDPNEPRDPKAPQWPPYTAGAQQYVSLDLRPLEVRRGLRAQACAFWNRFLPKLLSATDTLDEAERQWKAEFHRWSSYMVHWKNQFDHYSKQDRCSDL
Acetylcholinesterase (Electrophorus electricus, UniProt O42275), sequence (O42275 whole entry): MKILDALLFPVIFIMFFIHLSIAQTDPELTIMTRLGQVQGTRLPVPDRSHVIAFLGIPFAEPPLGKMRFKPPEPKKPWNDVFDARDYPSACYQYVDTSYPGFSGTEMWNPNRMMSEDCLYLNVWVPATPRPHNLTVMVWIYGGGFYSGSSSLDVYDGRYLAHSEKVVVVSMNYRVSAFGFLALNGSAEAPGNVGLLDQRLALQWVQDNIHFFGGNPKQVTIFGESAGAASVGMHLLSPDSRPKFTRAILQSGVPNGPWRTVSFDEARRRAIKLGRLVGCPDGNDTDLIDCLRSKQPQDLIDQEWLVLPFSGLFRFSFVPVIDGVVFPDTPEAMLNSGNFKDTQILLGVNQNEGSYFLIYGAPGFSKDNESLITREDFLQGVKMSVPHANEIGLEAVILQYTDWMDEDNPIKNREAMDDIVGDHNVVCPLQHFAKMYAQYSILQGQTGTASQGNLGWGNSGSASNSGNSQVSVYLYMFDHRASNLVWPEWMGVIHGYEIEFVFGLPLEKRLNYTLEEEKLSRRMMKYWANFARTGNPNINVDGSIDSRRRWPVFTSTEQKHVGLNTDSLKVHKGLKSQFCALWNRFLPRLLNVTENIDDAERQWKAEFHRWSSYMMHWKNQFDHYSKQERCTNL
Acetylcholinesterase (Electrophorus electricus), sequence (O42275 24-633 limits assumed): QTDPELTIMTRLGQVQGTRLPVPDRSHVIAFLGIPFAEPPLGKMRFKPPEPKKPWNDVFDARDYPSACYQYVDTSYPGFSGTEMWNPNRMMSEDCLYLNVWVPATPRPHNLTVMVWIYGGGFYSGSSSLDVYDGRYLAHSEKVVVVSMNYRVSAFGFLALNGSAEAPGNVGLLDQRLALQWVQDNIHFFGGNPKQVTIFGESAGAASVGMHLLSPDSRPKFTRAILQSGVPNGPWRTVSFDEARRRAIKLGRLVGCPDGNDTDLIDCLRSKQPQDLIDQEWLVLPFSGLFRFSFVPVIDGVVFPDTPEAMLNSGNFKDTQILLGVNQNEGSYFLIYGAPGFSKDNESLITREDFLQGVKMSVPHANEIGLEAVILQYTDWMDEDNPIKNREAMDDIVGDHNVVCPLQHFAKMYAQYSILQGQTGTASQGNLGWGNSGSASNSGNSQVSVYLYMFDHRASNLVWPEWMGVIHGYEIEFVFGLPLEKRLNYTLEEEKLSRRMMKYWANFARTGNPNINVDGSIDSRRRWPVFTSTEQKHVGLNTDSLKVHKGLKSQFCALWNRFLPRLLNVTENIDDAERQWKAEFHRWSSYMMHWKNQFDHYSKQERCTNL
Description for in vitro: Permeability of the compound at 100 mg/mL after 10 hrs by PAMPA

Turning to `COc1cccc(/C=C2\COc3cc(OCCCCCCNc4c5c(nc6ccccc46)CCCC5)ccc3C2=O)c1`, the IC50 on Acetylcholinesterase [1] amounted to 142 nM; against Cholinesterase, 47.1 nM; in data set [3] it was 2200 nM. Moreover, the inhibition at 100 µM in data set [2] was found to be 54.1%.

For the compound `O=C1/C(=C/c2ccc(F)cc2)COc2cc(OCCCCCCNc3c4c(nc5ccccc35)CCCC4)ccc21`, the IC50 at Acetylcholinesterase [1] was 70.1 nM; against Acetylcholinesterase [4], 105 nM; on Cholinesterase, 44.2 nM; in data set [3], 1090 nM. For the same compound, the inhibition at 100 µM in data set [2] amounted to 58.4%. Moreover, in “in vitro”, the apparent permeability (Papp) at 10 h, 100 mg/mL amounted to 4 ×10⁻⁶ cm/s.

Consider `COc1ccc(/C=C2\COc3cc(OCCCCCCNc4c5c(nc6ccccc46)CCCC5)ccc3C2=O)cc1`, for which the inhibition result (in [5]; on Acetylcholinesterase [6]; in data set [10]) was “Active” in each case. Moreover, the IC50 against Acetylcholinesterase [1] was 67.9 nM; against Acetylcholinesterase [4], 157 nM; at Cholinesterase it was 33 nM; in data set [3] it was 401 nM. In data set [2], the inhibition at 100 µM is 48.3%. Moreover, in “in vitro”, the apparent permeability (Papp) at 10 h, 100 mg/mL is 6.8 ×10⁻⁶ cm/s. Moreover, the inhibition at 1 µM in data set [7] was determined as 67.5%; in data set [9] it was 78.4%. Further, the inhibition at 0.4 µM in data set [8] came out at 47.1%; in [11], 33.5%.

Regarding `CCN(CC)c1ccc(/C=C2\COc3cc(OCCCCCCNc4c5c(nc6ccccc46)CCCC5)ccc3C2=O)cc1`, the concentration for half-maximal inhibition (IC50) came to 693 nM at Acetylcholinesterase [1] and 235 nM on Cholinesterase. The inhibition at 100 µM in data set [2] came to 22.4%. Besides, in [12], the “inhibition (INH)” value is recorded as “Not Active”.

As to `COc1ccc(/C=C2\COc3cc(OCCCCCCNc4c5c(nc6cc(Cl)ccc46)CCCC5)ccc3C2=O)cc1`, the IC50 against Acetylcholinesterase [1] worked out at 123 nM; against Cholinesterase, 25.9 nM; in data set [3] it was 1360 nM. In addition, in [2], the inhibition at 100 µM is 15.3%.

In the case of `Cc1ccc(/C=C2\COc3cc(OCCCCCCNc4c5c(nc6ccccc46)CCCC5)ccc3C2=O)cc1`, the concentration for half-maximal inhibition (IC50) against Acetylcholinesterase [1] amounted to 129 nM; against Cholinesterase, 54.6 nM; in data set [3] it was 1240 nM. In data set [2], the inhibition at 100 µM is 60.5%.

Take `COc1ccc(/C=C2\COc3cc(OCCCCCCCCCCNc4c5c(nc6ccccc46)CCCC5)ccc3C2=O)cc1`: the IC50 amounted to 888 nM against Acetylcholinesterase [1], 6.2 nM against Cholinesterase and 3430 nM in data set [3]. Moreover, in data set [2], the inhibition at 100 µM came to 69.6%.

As for `COc1ccccc1/C=C1\COc2cc(OCCCCCCNc3c4c(nc5ccccc35)CCCC4)ccc2C1=O`, the IC50 against Acetylcholinesterase [1] stood at 151 nM; at Cholinesterase, 29.9 nM; in data set [3] it was 1790 nM. In addition, the inhibition at 100 µM in [2] was 70.3%.

Take `CN(C)c1ccc(/C=C2\COc3cc(OCCCCCCNc4c5c(nc6ccccc46)CCCC5)ccc3C2=O)cc1`: the IC50 against Acetylcholinesterase [1] was found to be 115 nM; at Cholinesterase, 65.7 nM; in data set [3], 1030 nM. For the same compound, the inhibition at 100 µM in data set [2] is 31.5%.

As for `COc1ccc(/C=C2\COc3cc(OCCCCCCNc4c5c(nc6ccccc46)CCCC5)ccc3C2=O)cc1OC`, the IC50 at Acetylcholinesterase [1] is 117 nM; on Cholinesterase it was 34.7 nM; in [3], 19700 nM. For the same compound, the inhibition at 100 µM in data set [2] was found to be 51.6%.

On to `COc1cc(/C=C2\COc3cc(OCCCCCCNc4c5c(nc6ccccc46)CCCC5)ccc3C2=O)cc(OC)c1OC`, for which the IC50 against Acetylcholinesterase [1] was found to be 106 nM; against Cholinesterase it was 109 nM. For the same compound, the inhibition at 100 µM in data set [2] is 25.7%. Further, the “inhibition (INH)” value in data set [12] is “Not Active”.

Take `O=C1/C(=C/c2ccc(Cl)cc2)COc2cc(OCCCCCCNc3c4c(nc5ccccc35)CCCC4)ccc21`: the results for the IC50 (at Acetylcholinesterase [1]; at Cholinesterase; in [3]) were 101 nM, 44.5 nM and 15400 nM, respectively. The inhibition at 100 µM in [2] came to 23.3%. Moreover, the Papp at 10 h, 100 mg/mL in “in vitro” amounted to 1.1 ×10⁻⁶ cm/s.

As for `COc1ccc(/C=C2\COc3cc(OCCCCCNc4c5c(nc6ccccc46)CCCC5)ccc3C2=O)cc1`, the IC50 at Acetylcholinesterase [1] stood at 78.3 nM; at Acetylcholinesterase [4], 98 nM; at Cholinesterase, 23.6 nM; in data set [3], 1160 nM. The inhibition at 100 µM in data set [2] stood at 58.4%. The compound further yielded a Papp at 10 h, 100 mg/mL in “in vitro” of 6.6 ×10⁻⁶ cm/s.

For the compound `COc1ccc(/C=C2\COc3cc(OCCCCCCCCNc4c5c(nc6cc(Cl)ccc46)CCCC5)ccc3C2=O)cc1`, the IC50 worked out at 188 nM against Acetylcholinesterase [1], 612 nM against Cholinesterase and 1560 nM in data set [3]. Moreover, in data set [2], the inhibition at 100 µM turned out to be 33.1%.

As for `COc1ccc(/C=C2\COc3cc(OCCCCCCCCCNc4c5c(nc6ccccc46)CCCC5)ccc3C2=O)cc1`, the half-maximal inhibitory concentration (IC50) against Acetylcholinesterase [1] is 169 nM; against Cholinesterase, 30.9 nM; in data set [3], 437 nM. Moreover, the inhibition at 100 µM in data set [2] is 60.2%.

In the case of `COc1ccc(/C=C2\COc3cc(OCCCCCCCCNc4c5c(nc6ccccc46)CCCC5)ccc3C2=O)cc1`, the half-maximal inhibitory concentration (IC50) at Acetylcholinesterase [1] came to 68.5 nM; against Acetylcholinesterase [4] it was 122 nM; on Cholinesterase, 93.1 nM; in [3] it was 518 nM. The inhibition at 100 µM in [2] was 64.8%. Also, the Papp at 10 h, 100 mg/mL in the data set “in vitro” stood at 4.9 ×10⁻⁶ cm/s.

In the case of `COc1ccc(CC2COc3cc(OCCCCCCNc4c5c(nc6ccccc46)CCCC5)ccc3C2=O)cc1` (centres undefined), the IC50 is 91.7 nM against Acetylcholinesterase [1], 27.4 nM against Cholinesterase and 1110 nM in [3]. Also, the inhibition at 100 µM in data set [2] is 78.2%. Moreover, in “in vitro”, the apparent permeability (Papp) at 10 h, 100 mg/mL stood at 2.8 ×10⁻⁶ cm/s.

On to `COc1ccc(/C=C2\COc3cc(O)ccc3C2=O)cc1` [BONDUCELLIN], for which the IC50 was above 100000 nM against Acetylcholinesterase [1], above 100000 nM on Cholinesterase and 1060 nM in data set [3]. The inhibition at 100 µM in data set [2] stood at 24.1%.
